Test results published in patent US10543212B2, “Substituted amines for treating cardiac diseases” (Cardurion Pharmaceuticals, LLC, priority 2017, dated 2020).

molecular target: T1, Full-length, GST-tagged, human CaMKIIδ (Homo sapiens, UniProt Q13557); assay: CaMKIIδ binding assay (TR-FRET with BODIPY-labeled probe ligand); conditions: CaMKIIδ binding assay, results of Table 2
T1 construct: Full-Length, Glutathione-S-Transferase(GST)-Tagged, Human CaMKIIδ was purchased from Carna Biosciences; purchased Carna Biosciences 02-111
Procedure: In vitro CaMKIIδ inhibitory activity was evaluated by a binding assay.
Full-Length, Glutathione-S-Transferase(GST)-Tagged, Human CaMKIIδ was purchased from Carna Biosciences (product #02-111, Kobe, Japan). Full-length bovine calmodulin was purchased from Wako Pure Chemical Industries (Osaka, Japan). Terbium-labeled anti-GST antibody (Tb-anti-GST Ab) was purchased from Life Technologies (Carlsbad, Calif., USA). Boron-dipyrromethene (BODIPY)-labeled probe ligand was synthesized as described below.
Time-Resolved Fluorescence Resonance Energy Transfer (TR-FRET) Assay
All assays were conducted using 384-well, white, flat-bottomed plates (product #784075, Greiner Bio-One, Frickenhausen, Germany) in kinase assay buffer, which consists of 50 mM HEPES pH 7.6, 10 mM MgCl2, 1 mM EGTA, 0.01% Brig-35, 0.1 mM DTT). The fluorescent probe ligand was added at a final concentration of 300 nM to solutions containing 0.21 nM Tb-anti-GST Ab, 1 mM CaCl2), 10 μg/mL calmodulin, and 0.5 nM GST-tagged CaMKIIδ. After shaded incubation of the protein-probe mixture on ice for 30 min, the premix was dispensed in the assay plate including test inhibitors with 4 fold dilution series of eight concentrations. After 1 hr incubation at room temperature, TR-FRET signals were measured in duplicate using an EnVision microplate reader (Perkin Elmer, Waltham, Mass., USA). The solution in each well was excited with a laser (λ=340 nm) reflected by a dichroic mirror (D400/D505 (Perkin Elmer) through an excitation filter (UV (TRF) 340, (Perkin Elmer)), and fluorescence from Tb and BODIPY were detected through two emission filters (CFP 495 (Perkin Elmer) for Tb, Emission 520 (Perkin Elmer) for BODIPY).
The percentage of inhibition of test compounds was calculated according to equation (1) Inhibition (%)=100×([…]−T)/(μH−μL) (1)
Where T is the value of the wells containing test compounds and μH and μL are the mean values of the 0% and 100% inhibition control wells, respectively. The values of the 0 and 100% controls were the signals obtained in the absence and presence of 3 μM its parent compound, respectively. The half maximal inhibitory concentration (IC50) of test compounds was calculated by fitting the data with the logistic equation using XLfit (IDBS, Guildford, UK). The IC50 was classified according to the following activity ranks.

T1 sequence (Q13557 1-478 isoform Q13557-12): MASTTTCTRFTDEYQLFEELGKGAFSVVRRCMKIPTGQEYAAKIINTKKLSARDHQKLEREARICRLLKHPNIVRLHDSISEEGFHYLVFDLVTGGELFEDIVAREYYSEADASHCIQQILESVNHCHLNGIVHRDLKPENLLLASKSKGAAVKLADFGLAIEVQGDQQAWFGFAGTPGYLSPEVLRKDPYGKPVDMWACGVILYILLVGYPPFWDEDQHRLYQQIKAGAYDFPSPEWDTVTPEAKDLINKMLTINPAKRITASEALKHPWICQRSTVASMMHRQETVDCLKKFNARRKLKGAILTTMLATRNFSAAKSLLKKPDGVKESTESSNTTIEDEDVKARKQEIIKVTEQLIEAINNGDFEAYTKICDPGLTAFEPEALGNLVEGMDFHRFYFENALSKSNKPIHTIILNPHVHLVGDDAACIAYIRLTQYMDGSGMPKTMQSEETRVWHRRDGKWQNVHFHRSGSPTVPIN

`C[C@@H](Cn1cnnn1)Oc1cc(-c2cnc(Nc3ccc4c(c3)CCN4C(=O)C3CCN(C)CC3)nc2)ccc1Cl` [Example 452, (S)-(5-((5-(3-((1-(1H-tetrazol-1-yl)propan-2-yl)oxy)-4-chlorophenyl)pyrimidin-2-yl)amino)indolin-1-yl) (1-methylpiperidin-4-yl)methanone] and `C[C@@H](Cn1cnnn1)Oc1cc(-c2cnc(Nc3ccc4c(c3)N(C(=O)C3CCN(C)CC3)CC4)nc2)ccc1Cl` [Example 435, (S)-(6-((5-(3-((1-(1H-tetrazol-1-yl)propan-2-yl)oxy)-4-chlorophenyl)pyrimidin-2-yl)amino)indolin-1-yl) (1-methylpiperidin-4-yl)methanone] cannot be ordered by IC50: under 10 nM for the first, under 10 nM for the second.

Going from `COc1cnc(N2CCC(N3CCOCC3)CC2)cc1Nc1ncc(-c2ccc(Cl)c(O[C@@H](C)Cn3cnnn3)c2)cn1` [Example 456, (S)-5-(3-((1-(1H-tetrazol-1-yl)propan-2-yl)oxy)-4-chlorophenyl)-N-(5-methoxy-2-(4-morpholinopiperidin-1-yl)pyridin-4-yl)pyrimidin-2-amine] to `C[C@@H](Cn1cnnn1)Oc1cc(-c2cnc(Nc3ccc(N4CCC(N5CCOCC5)CC4)cc3C(N)=O)nc2)ccc1Cl` [Example 444, (S)-2-((5-(3-((1-(1H-tetrazol-1-yl)propan-2-yl)oxy)-4-chlorophenyl)pyrimidin-2-yl)amino)-5-(4-morpholinopiperidin-1-yl)benzamide], the IC50 rises from under 10 nM to at least 100 nM. The first is the more potent here.

First: C[C@@H](Cn1cnnn1)Oc1cc(-c2cnc(Nc3cn(CC4CCN(C5COC5)C4)nc3C(F)(F)F)nc2)ccc1Cl (stereo partly drawn) [Example 574, 5-(3-(((S)-1-(1H-tetrazol-1-yl)propan-2-yl)oxy)-4-chlorophenyl)-N-(1-((1-(oxetan-3-yl)pyrrolidin-3-yl)methyl)-3-(trifluoromethyl)-1H-pyrazol-4-yl)pyrimidin-2-amine]
Second: COc1cc2c(cc1Nc1ncc(-c3ccc(Cl)c(O[C@@H](C)Cn4cnnn4)c3)cn1)CN(C(=O)CN1CCOCC1)CC2 [Example 501, (S)-1-(7-((5-(3-((1-(1H-tetrazol-1-yl)propan-2-yl)oxy)-4-chlorophenyl)pyrimidin-2-yl)amino)-6-methoxy-3,4-dihydroisoquinolin-2(1H)-yl)-2-morpholinoethan-1-one]
The IC50 of the first is lower: under 10 nM for the first, 10 to 100 nM for the second.

same assay, conditions: CaMKIIδ binding assay; activity class per Table 2

`CC(Cn1cnnn1)Oc1cc(-c2cnc(Nc3cn(C4CCC(O)(CN5CCOCC5)CC4)nc3C(F)(F)F)nc2)ccc1Cl` [Example 918, trans-4-(4-((5-(3-(((S)-1-(1H-tetrazol-1-yl)propan-2-yl)oxy)-4-chlorophenyl)pyrimidin-2-yl)amino)-3-(trifluoromethyl)-1H-pyrazol-1-yl)-1-(morpholinomethyl)cyclohexan-1-ol] and `C[C@@H](Cn1cnnn1)Oc1cc(-c2cnc(Nc3cn(C4CC5(C4)CN(C4COC(C)(C)OC4)C5)nc3OCC(F)(F)F)nc2)ccc1Cl` [Example 932, (S)-5-(3-((1-(1H-tetrazol-1-yl)propan-2-yl)oxy)-4-chlorophenyl)-N-(1-(2-(2,2-dimethyl-1,3-dioxan-5-yl)-2-azaspiro[3.3]heptan-6-yl)-3-(2,2,2-trifluoroethoxy)-1H-pyrazol-4-yl)pyrimidin-2-amine] cannot be ordered by IC50: under 10 nM for the first, under 10 nM for the second.

Work on `C[C@@H](Cn1cnnn1)Oc1cc(-c2cnc(Nc3cn(-c4ccc(=O)[nH]c4)nc3OCC(F)(F)F)nc2)ccc1Cl` [Example 902, (S)-5-(4-((5-(3-((1-(1H-tetrazol-1-yl)propan-2-yl)oxy)-4-chlorophenyl)pyrimidin-2-yl)amino)-3-(2,2,2-trifluoroethoxy)-1H-pyrazol-1-yl)pyridin-2(1H)-one] yielded an IC50 of under 10 nM.

same assay, conditions: Table 2; CaMKIIδ binding assay, activity given as class A/B/C

First: C[C@@H](Cn1cnnn1)Oc1cc(-c2cnc(Nc3cn([C@@H](C)C(=O)N4CCOCC4)nc3C(F)(F)F)nc2)ccc1Cl [Example 761, (S)-2-(4-((5-(3-(((S)-1-(1H-tetrazol-1-yl)propan-2-yl)oxy)-4-chlorophenyl)pyrimidin-2-yl)amino)-3-(trifluoromethyl)-1H-pyrazol-1-yl)-1-morpholinopropan-1-one]
Second: C[C@H](O)Cn1cc(Nc2ncc(-c3ccc(Cl)c(O[C@@H](C)Cn4cnnn4)c3)cn2)c(OCC(F)(F)F)n1 [Example 833, (S)-1-(4-((5-(3-(((S)-1-(1H-tetrazol-1-yl)propan-2-yl)oxy)-4-chlorophenyl)pyrimidin-2-yl)amino)-3-(2,2,2-trifluoroethoxy)-1H-pyrazol-1-yl)propan-2-ol]
The IC50 of the first is higher: 10 to 100 nM for the first, under 10 nM for the second.

Compared with `C[C@@H](Cn1cnnn1)Oc1cc(-c2cnc(Nc3cn(CC(C)(C)NC(=O)OC(C)(C)C)nc3C(F)(F)F)nc2)ccc1Cl` [Example 860, tert-butyl (S)-(1-(4-((5-(3-((1-(1H-tetrazol-1-yl)propan-2-yl)oxy)-4-chlorophenyl)pyrimidin-2-yl)amino)-3-(trifluoromethyl)-1H-pyrazol-1-yl)-2-methylpropan-2-yl)carbamate], `C[C@@H](Cn1cnnn1)Oc1cc(-c2cnc(Nc3cn([C@H]4CC[C@@H](N5CC6(COC6)C5)CC4)nc3C(F)(F)F)nc2)ccc1Cl` [Example 823, 5-(3-(((S)-1-(1H-tetrazol-1-yl)propan-2-yl)oxy)-4-chlorophenyl)-N-(1-(cis-4-(2-oxa-6-azaspiro[3.3]heptan-6-yl)cyclohexyl)-3-(trifluoromethyl)-1H-pyrazol-4-yl)pyrimidin-2-amine] is lower in IC50: at least 100 nM for the first, under 10 nM for the second.

same assay, conditions: Table 2; activity class for CaMKIIδ

`CCC(C)n1cc(Nc2ncc(-c3ccc(Cl)c(O[C@@H](C)Cn4cnnn4)c3)cn2)c(C(F)(F)F)n1` (stereo partly drawn) [Example 608, 5-(3-(((S)-1-(1H-tetrazol-1-yl)propan-2-yl)oxy)-4-chlorophenyl)-N-(1-(sec-butyl)-3-(trifluoromethyl)-1H-pyrazol-4-yl)pyrimidin-2-amine] and `CCN(CC)C(=O)Cn1cc(Nc2ncc(-c3ccc(Cl)c(O[C@@H](C)Cn4cnnn4)c3)cn2)c(C(F)(F)F)n1` [Example 606, (S)-2-(4-((5-(3-((1-(1H-tetrazol-1-yl)propan-2-yl)oxy)-4-chlorophenyl)pyrimidin-2-yl)amino)-3-(trifluoromethyl)-1H-pyrazol-1-yl)-N,N-diethylacetamide] fall in the same range of IC50: 10 to 100 nM for the first, 10 to 100 nM for the second.

`COc1nn(C2CCN(C3CCOCC3)CC2)cc1Nc1ncc(-c2ccc(Cl)c(O[C@@H](C)Cn3cnnn3)c2)cn1` [Example 662, (S)-5-(3-((1-(1H-tetrazol-1-yl)propan-2-yl)oxy)-4-chlorophenyl)-N-(3-methoxy-1-(1-(tetrahydro-2H-pyran-4-yl)piperidin-4-yl)-1H-pyrazol-4-yl)pyrimidin-2-amine] and `CCOc1nn(C2CCN(C3CCOCC3)CC2)cc1Nc1ncc(-c2ccc(Cl)c(O[C@@H](C)Cn3cnnn3)c2)cn1` [Example 587, (S)-5-(3-((1-(1H-tetrazol-1-yl)propan-2-yl)oxy)-4-chlorophenyl)-N-(3-ethoxy-1-(1-(tetrahydro-2H-pyran-4-yl)piperidin-4-yl)-1H-pyrazol-4-yl)pyrimidin-2-amine] cannot be ordered by IC50: under 10 nM for the first, under 10 nM for the second.

`Cc1cc(Nc2ncc(-c3ccc(Cl)c(O[C@@H](C)Cn4cnnn4)c3)cn2)n(-c2ccccn2)n1` [Example 660, (S)-5-(3-((1-(1H-tetrazol-1-yl)propan-2-yl)oxy)-4-chlorophenyl)-N-(3-methyl-1-(pyridin-2-yl)-1H-pyrazol-5-yl)pyrimidin-2-amine] and `C[C@@H](Cn1cnnn1)Oc1cc(-c2cnc(Nc3cc(-c4cccs4)nn3C)nc2)ccc1Cl` [Example 729, (S)-5-(3-((1-(1H-tetrazol-1-yl)propan-2-yl)oxy)-4-chlorophenyl)-N-(1-methyl-3-(thiophen-2-yl)-1H-pyrazol-5-yl)pyrimidin-2-amine] cannot be ordered by IC50: at least 100 nM for the first, 10 to 100 nM for the second.

`COc1cc(N2CCOC(CO)C2)ccc1Nc1ncc(-c2ccc(Cl)c(O[C@@H](C)Cn3cnnn3)c2)cn1` (stereo partly drawn) [Example 594, (4-(4-((5-(3-(((S)-1-(1H-tetrazol-1-yl)propan-2-yl)oxy)-4-chlorophenyl)pyrimidin-2-yl)amino)-3-methoxyphenyl)morpholin-2-yl)methanol] and `COc1nn(C2CCN(C(=O)OC(C)(C)C)CC2)cc1Nc1ncc(-c2ccc(Cl)c(O[C@@H](C)Cn3cnnn3)c2)cn1` [Example 646, tert-butyl (S)-4-(4-((5-(3-((1-(1H-tetrazol-1-yl)propan-2-yl)oxy)-4-chlorophenyl)pyrimidin-2-yl)amino)-3-methoxy-1H-pyrazol-1-yl)piperidine-1-carboxylate] fall in the same range of IC50: 10 to 100 nM for the first, 10 to 100 nM for the second.
